Source: patent US20160297830A1, “NOVEL COMPOUNDS USEFUL FOR THE TREATMENT OF BACTERIAL INFECTIOUS DISEASES” (GALAPAGOS NV, priority 2013, published 2016)
Converted amounts (≈) assume the structure as drawn. Read-outs that look alike come from different tables or passages of the source.

Assays:
S. aureus Sa1 ATCC 13709 = assay: microbe, parasite or virus in culture; type: cell-based; conditions: Staphylococcus aureus
[1] = test system: H. influenza Hi47 clinical strain, Ampicillin Resistant; assay: organism not typed; type: cell-based; conditions: read-out: MIC Hi47
[2] = test system: E. coli Ec113 efflux pump KO; assay: microbe, parasite or virus in culture; type: cell-based; conditions: Escherichia coli, read-out: MIC Ec113 efflux pump KO
[3] = test system: H. influenza Hi10 clinical strain; assay: organism not typed; type: cell-based; conditions: read-out: MIC Hi10
[4] = test system: S. aureus Sa2 clinical strain NCIMB 41953, MRSA; assay: microbe, parasite or virus in culture; type: cell-based; conditions: Staphylococcus aureus, read-out: MIC Sa2
[5] = test system: S. aureus Sa26 ATCC 25923; assay: Antibacterial activity assay (MIC), S. aureus Sa26; type: cell-based; conditions: Staphylococcus aureus
E. coli Ec1 ATCC 25922 = assay: Antibacterial activity assay (MIC), E. coli Ec1; type: cell-based; conditions: Escherichia coli
[6] = test system: E. coli Ec50 efflux pump KO; assay: microbe, parasite or virus in culture; type: cell-based; conditions: Escherichia coli, read-out: MIC Ec50 efflux pump KO
DNA III Polymerase E = DNA III Polymerase E (Escherichia coli, UniProt P10443); assay: In vitro activity against DNA III Polymerase E, E. coli; type: biochemical
Experimental: A radioactive filterplate assay was used to assess inhibitory activity of compounds on DNA Polymerase IIIα. Five μL of a dilution series of compound, starting from 100 μM highest concentration, 1/5 dilution, was added to the wells of a 96 well plate. Recombinant enzyme was diluted to 0.47 μg/mL in a buffer containing 20 mM Tris pH7.5, 8 mM DTT, 10 mM MgOAc, 0.05% CHAPS and 10 μL thereof was added to the compound dilutions. The reaction was started with the addition of 10 μL substrate in the same buffer, containing activated calf thymus DNA (Sigma, D4522), dATP, dGTP, dCTP, dTTP (Invitrogen) and [α-33P]-dTTP (Perkin Elmer, NEG605H001) at a concentration of 62.5 μg/mL, 50 nM and 7.5 μCi/mL respectively. The mixture was incubated at 30° C. for 120 minutes and terminated by addition of phosphoric acid. Samples were transferred to filter plates and incorporated radioactivity was measured by the Topcount. Data were converted to percent inhibition with respect to positive and negative controls. IC50 values were calculated using Graph Prism™ software.

[7] = biological target: DNA Polymerase IIIα (DnaE) from Staphylococcus aureus (Staphylococcus aureus, UniProt Q6GG04); assay: biochemical
[8] = test system: H. influenza Hi106 ATCC 51907; assay: organism not typed; type: cell-based; conditions: read-out: MIC Hi106
S. aureus Sa4 NCTC 6571 = assay: Antibacterial activity assay (MIC), S. aureus Sa4; type: cell-based; conditions: Staphylococcus aureus
[9] = test system: H. influenza Hi3 ATCC 31517; assay: organism not typed; type: cell-based; conditions: read-out: MIC Hi3
[10] = ATCC13709, S. aureus Sa1 ATCC 13709, sensitive strain, Mueller-Hinton Broth, 37° C., read-out: MIC Sa1
[11] = ATCC25923, read-out: MIC Sa26 + 10% SH, S. aureus Sa26 + 10% SH
[12] = ATCC25923, read-out: MIC Sa26 + 50% SH, S. aureus Sa26 + 50% SH
[13] = ATCC25923, S. aureus Sa26 ATCC 25923, sensitive strain, Mueller-Hinton Broth, 37° C., read-out: MIC Sa26
[14] = ATCC25922, E. coli Ec1 ATCC 25922, sensitive strain, read-out: MIC Ec1
[15] = NCTC6571, S. aureus Sa4 NCTC 6571, sensitive strain, read-out: MIC Sa4
[16] = DNA polymerase III, E. coli, read-out: IC50 semiquantitative scoring, E. coli
[17] = DNA polymerase III, S. aureus, read-out: IC50 semiquantitative scoring, S. aureus
[18] = ATCC25923, read-out: MIC Sa26 + 10% SH
[19] = ATCC25923, read-out: MIC Sa26 + 50% SH

DNA Polymerase IIIα (DnaE) from Staphylococcus aureus, sequence (Q6GG04 1-1022): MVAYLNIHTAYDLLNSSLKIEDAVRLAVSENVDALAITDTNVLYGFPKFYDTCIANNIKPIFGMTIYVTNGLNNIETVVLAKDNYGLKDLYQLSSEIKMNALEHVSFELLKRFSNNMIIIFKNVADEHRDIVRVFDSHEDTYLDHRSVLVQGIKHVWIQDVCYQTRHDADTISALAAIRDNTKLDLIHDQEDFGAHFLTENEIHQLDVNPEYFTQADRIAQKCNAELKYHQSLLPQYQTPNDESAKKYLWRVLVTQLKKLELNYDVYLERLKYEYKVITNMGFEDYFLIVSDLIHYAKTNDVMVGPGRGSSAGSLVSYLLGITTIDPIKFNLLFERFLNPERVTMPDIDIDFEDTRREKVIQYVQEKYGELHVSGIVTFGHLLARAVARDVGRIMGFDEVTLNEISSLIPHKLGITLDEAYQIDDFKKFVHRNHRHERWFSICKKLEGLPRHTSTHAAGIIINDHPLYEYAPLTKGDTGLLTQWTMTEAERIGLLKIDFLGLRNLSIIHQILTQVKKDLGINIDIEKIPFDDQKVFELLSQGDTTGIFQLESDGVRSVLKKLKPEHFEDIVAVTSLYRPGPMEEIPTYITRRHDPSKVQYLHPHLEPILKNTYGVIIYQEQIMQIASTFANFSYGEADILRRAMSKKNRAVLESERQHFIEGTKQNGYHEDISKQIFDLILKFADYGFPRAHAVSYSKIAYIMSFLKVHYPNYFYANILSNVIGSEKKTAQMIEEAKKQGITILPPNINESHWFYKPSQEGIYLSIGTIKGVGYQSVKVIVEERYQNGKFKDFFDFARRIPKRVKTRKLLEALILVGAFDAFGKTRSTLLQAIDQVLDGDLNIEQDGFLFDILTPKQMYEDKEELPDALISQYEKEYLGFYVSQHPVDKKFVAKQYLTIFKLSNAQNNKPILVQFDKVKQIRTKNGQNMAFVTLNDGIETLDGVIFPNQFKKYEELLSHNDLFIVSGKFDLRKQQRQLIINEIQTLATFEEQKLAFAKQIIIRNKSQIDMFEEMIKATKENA
DNA III Polymerase E, sequence (P10443 whole entry): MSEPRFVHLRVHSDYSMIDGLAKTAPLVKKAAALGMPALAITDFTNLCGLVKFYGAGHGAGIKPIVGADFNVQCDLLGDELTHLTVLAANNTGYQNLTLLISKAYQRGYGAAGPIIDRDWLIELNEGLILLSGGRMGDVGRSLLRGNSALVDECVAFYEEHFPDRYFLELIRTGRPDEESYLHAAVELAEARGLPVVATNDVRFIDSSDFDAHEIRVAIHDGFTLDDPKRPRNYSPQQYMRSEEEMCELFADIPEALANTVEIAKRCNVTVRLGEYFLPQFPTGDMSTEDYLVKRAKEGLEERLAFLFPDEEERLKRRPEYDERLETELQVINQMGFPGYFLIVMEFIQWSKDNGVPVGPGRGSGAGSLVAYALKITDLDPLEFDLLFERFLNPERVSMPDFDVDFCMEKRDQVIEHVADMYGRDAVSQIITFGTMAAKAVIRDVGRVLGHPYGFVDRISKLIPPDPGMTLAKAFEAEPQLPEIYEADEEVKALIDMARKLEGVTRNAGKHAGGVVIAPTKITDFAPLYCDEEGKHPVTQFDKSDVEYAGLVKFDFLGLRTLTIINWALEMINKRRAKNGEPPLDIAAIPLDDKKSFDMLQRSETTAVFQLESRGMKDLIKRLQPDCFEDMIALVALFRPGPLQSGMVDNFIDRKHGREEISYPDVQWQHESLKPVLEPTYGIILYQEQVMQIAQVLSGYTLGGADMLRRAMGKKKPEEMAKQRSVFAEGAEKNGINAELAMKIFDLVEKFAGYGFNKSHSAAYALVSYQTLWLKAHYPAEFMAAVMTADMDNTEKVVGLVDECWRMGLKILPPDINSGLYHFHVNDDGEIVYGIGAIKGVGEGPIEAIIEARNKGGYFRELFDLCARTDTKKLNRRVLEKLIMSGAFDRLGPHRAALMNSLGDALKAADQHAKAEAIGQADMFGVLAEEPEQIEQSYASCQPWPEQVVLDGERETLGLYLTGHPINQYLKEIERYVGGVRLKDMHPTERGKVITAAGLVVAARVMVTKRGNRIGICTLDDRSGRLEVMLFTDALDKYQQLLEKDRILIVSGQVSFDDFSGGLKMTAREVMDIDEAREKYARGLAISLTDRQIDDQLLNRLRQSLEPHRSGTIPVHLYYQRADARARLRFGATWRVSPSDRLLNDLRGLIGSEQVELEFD

Structure (SMILES)	MIC (S. aureus Sa1 ATCC 13709; [10]) [mg/L]	MIC [1] [mg/L]	MIC [2] [mg/L]	MIC [3] [mg/L]	MIC [4] [mg/L]	MIC [5, 11] [mg/L]	MIC [5, 12] [mg/L]	MIC [5, 13] [mg/L]	MIC (E. coli Ec1 ATCC 25922; [14]) [mg/L]	MIC [6] [mg/L]	IC50 (DNA III Polymerase E) [µM]	IC50 [7] [µM]	MIC [8] [mg/L]	MIC (S. aureus Sa4 NCTC 6571; [15]) [mg/L]	MIC [9] [mg/L]	IC50 (DNA III Polymerase E; [16]) [µM]	further results
COC[C@@H](O)[C@H]1OC(=O)[C@H](COC)[C@H]2C=C[C@H]3[C@H]4O[C@]2(/C(C)=C/[C@H]1C)[C@@H]3[C@H](O)[C@@H](C)[C@H]4O [Compound 1, Baleomycin]	> 64	64 (≈ 141 µM)	0.5 (≈ 1.1 µM)	> 64	> 64	> 64	> 64	> 64	> 64	2 (≈ 4.42 µM)	2.21 to 22.1	2.21 to 22.1	64 (≈ 141 µM)	> 64	> 64		
COC[C@@H](O)[C@H]1OC(=O)[C@H](COC)[C@H]2C=C[C@H]3[C@H]4O[C@]2(/C(C)=C/[C@H]1C)[C@@H]3[C@H](O)[C@@H](C)[C@H]4OC(=O)c1ccc[nH]1 [Compound 3, 8-O-1H-pyrrole-2′-carbonylbaleomycin]	0.5 (≈ 0.916 µM)	> 64	0.125 (≈ 0.229 µM)	64 (≈ 117 µM)	0.5 (≈ 0.916 µM)	1	2	1 (≈ 1.83 µM)	> 64	8 (≈ 14.7 µM)		0.00183 to 1.83	64 (≈ 117 µM)	0.5 (≈ 0.916 µM)	> 64	1.83 to 18.3	
COCC[C@H]1OC(=O)[C@H](COC)[C@H]2C=C[C@H]3[C@H]4O[C@]2(/C(C)=C/[C@H]1C)[C@@H]3[C@H](O)[C@@H](COC)[C@H]4OC(=O)c1ccc[nH]1 [Compound 4, 17-Deoxy-8-O-1H-pyrrole-2′-carbonylbranimycin]	4 (≈ 7.15 µM)		4 (≈ 7.15 µM)	> 64	4 (≈ 7.15 µM)	4	8	4 (≈ 7.15 µM)	> 64	> 64	> 17.9	0.00179 to 1.79		2 (≈ 3.57 µM)	> 64		
COC[C@@H]1[C@@H](O)[C@@H]2[C@H]3C=C[C@@H]4[C@@H](COC)C(=O)O[C@H]([C@H](O)COC)[C@H](C)/C=C(\C)[C@@]24O[C@H]3[C@@H]1OC(=O)c1ccoc1 [Compound 5, 8-O-Furane-3′-carbonylbranimycin]	2 (≈ 3.47 µM)	> 64		> 64	2 (≈ 3.47 µM)	2	4	4 (≈ 6.94 µM)	> 64	> 64			> 64	2 (≈ 3.47 µM)	> 64	> 17.3	IC50 [7, 17]: 0.00173 to 1.73 µM
COC[C@@H]1[C@@H](O)[C@@H]2[C@H]3C=C[C@@H]4[C@@H](COC)C(=O)O[C@H]([C@H](O)COC)[C@H](C)/C=C(\C)[C@@]24O[C@H]3[C@@H]1OC(=O)c1ccc(C)[nH]1 [Compound 6, 8-O-5-Methyl-1H-pyrrole-2′-carbonylbranimycin]		> 64	8 (≈ 13.6 µM)	> 64	64 (≈ 109 µM)							0.0017 to 1.7	> 64		> 64	> 17	MIC (S. aureus Sa1 ATCC 13709; ATCC13709, read-out: MIC Sa1): > 64 mg/L; MIC ([5]; ATCC25923, read-out: MIC Sa26): > 64 mg/L; MIC [5, 18]: > 64 mg/L; MIC [5, 19]: > 64 mg/L; MIC (E. coli Ec1 ATCC 25922; ATCC25922, read-out: MIC Ec1): > 64 mg/L; MIC (S. aureus Sa4 NCTC 6571; NCTC6571, read-out: MIC Sa4): > 64 mg/L
COC[C@@H](O)[C@H]1OC(=O)[C@H](COC)[C@H]2C=C[C@H]3[C@H]4O[C@]2(/C(C)=C/[C@H]1C)[C@@H]3[C@H](O)[C@@H](C)[C@H]4OC(=O)c1ccoc1 [Compound 7, 8-O-Furane-3′-carbonylbaleomycin]	8 (≈ 14.6 µM)	64 (≈ 117 µM)	0.125 (≈ 0.229 µM)	64 (≈ 117 µM)	8 (≈ 14.6 µM)	16	16	16 (≈ 29.3 µM)	> 64	> 64	0.00183 to 1.83	0.00183 to 1.83	64 (≈ 117 µM)	8 (≈ 14.6 µM)	> 64		
COC[C@@H](O)[C@H]1OC(=O)[C@H](COC)[C@H]2C=C[C@H]3[C@H]4O[C@]2(/C(C)=C/[C@H]1C)[C@@H]3[C@H](O)[C@@H](C)[C@H]4OC(=O)c1cc(F)c[nH]1 [Compound 23, 8-O-4-Fluoro-1H-pyrrole-2′-carbonylbaleomycin]		64 (≈ 114 µM)	0.12 (≈ 0.213 µM)	64 (≈ 114 µM)	4 (≈ 7.1 µM)							0.00177 to 1.77	64 (≈ 114 µM)		> 64	1.77 to 17.7	MIC (S. aureus Sa1 ATCC 13709; ATCC13709, read-out: MIC Sa1): 1 mg/L (≈ 1.77 µM); MIC ([5]; ATCC25923, read-out: MIC Sa26): 1 mg/L (≈ 1.77 µM); MIC [5, 18]: 2 mg/L; MIC [5, 19]: 4 mg/L; MIC (E. coli Ec1 ATCC 25922; ATCC25922, read-out: MIC Ec1): > 64 mg/L; MIC (S. aureus Sa4 NCTC 6571; NCTC6571, read-out: MIC Sa4): 1 mg/L (≈ 1.77 µM)
COC[C@@H]1[C@@H](O)[C@@H]2[C@H]3C=C[C@@H]4[C@@H](COC)C(=O)O[C@H]([C@H](O)COC)[C@H](C)/C=C(\C)[C@@]24O[C@H]3[C@@H]1OC(=O)c1cc(Br)c(F)[nH]1 [Compound 37, 8-O-4-Bromo-5-Fluoro-1H-pyrrole-2′-carbonylbranimycin]	> 64	> 64	16 (≈ 23.8 µM)	> 64	64 (≈ 95.2 µM)	> 64	> 64	64 (≈ 95.2 µM)	> 64	> 64			> 64	64 (≈ 95.2 µM)	> 64		IC50 [7, 17]: 0.00149 to 1.49 µM
COC[C@@H]1[C@@H](O)[C@@H]2[C@H]3C=C[C@@H]4[C@@H](COC)C(=O)O[C@H]([C@H](O)COC)[C@H](C)/C=C(\C)[C@@]24O[C@H]3[C@@H]1OC(=O)c1cc(C)n[nH]1 [Compound 39, 8-O-5-Methyl-1H-Pyrazole-3′-carbonylbranimycin]	> 64	> 64	> 64	> 64	> 64	> 64	> 64	> 64	> 64	> 64		1.69 to 16.9	> 64	> 64	> 64		
